Assay results published in US20220387317A1, “METHODS AND COMPOSITIONS RELATING TO SELECTIVE INTRACELLULAR DELIVERY OF CD38 INHIBITORS” (Ohio State Innovation Foundation, priority 2019, published 2022).
“Also recorded” adds a separate entry of the source.

Experiments:
[1] = test system: Sprague Dawley rats; experiment: Rat liver hilar clamp model of IRI (segmental 70% ischemia); format: in vivo
Text: In Vitro: Primary liver cells subjected to H2O2-induced oxidative stress injury. In Vivo: Liver IRI induced in Sprague Dawley rats using a segmental (70% ischemia) hilar clamp model. Markers of liver injury including plasma ALT and AST, tissue MDA, ATP, and GSH, and histology assessed. • b) Results Hypoxic HSCs had increased CD38 expression (FIG. 11) and CD38 activity measured by fluorometric assay (FIG. 12). CD38 expression, activity, and hepatocellular injury increased with duration of ischemia in a rat hilar clamp model of IRI: Sprague-Dawley rats underwent a hilar clamp procedure to induce IRI for 30, 60, 90, 120 min of ischemia followed by 6 h reperfusion. Tissue CD38 expression was measured by Western blot (FIG. 15A), serum ALT by colorimetric assay at 0, 30, 180, 360 min post reperfusion (FIG. 15B), and CD38 activity at all ischemia time points (FIG. 15C). CD38 inhibition increases cell viability, decreases intracellular ROS formation and ET-1 production in HSCs exposed to hypoxia/oxidant stress: Primary rat HSCs were exposed to 3 h hypoxia (0% 02) and 2 h oxidant stress (H2O2). […] Rat model of marginal donor organ recapitulates the inflammatory environment of a discarded “high risk” human donor organ: Control rats have little steatosis by H&E (FIG. 18A) and mild CD38 expression by IHC (FIG. 18B). Rats fed a methionine choline deficient (MCD) diet have severe steatosis by H&E (FIG. 18C) and high CD38 expression co-localizing with GFAP positive HSCs by IHC (FIG. 18D).

[2] = biological target: T1, CD38 (Rattus norvegicus, UniProt Q64244); experiment: CD38 activity during hepatic IRI; format: in vivo
T1 construct: Liver IRI induced in Sprague Dawley rats using a segmental (70% ischemia) hilar clamp model; from tissue; host or cells: rat liver (Sprague Dawley, hilar clamp ischemia/reperfusion)
T1 sequence (Q64244 1-303): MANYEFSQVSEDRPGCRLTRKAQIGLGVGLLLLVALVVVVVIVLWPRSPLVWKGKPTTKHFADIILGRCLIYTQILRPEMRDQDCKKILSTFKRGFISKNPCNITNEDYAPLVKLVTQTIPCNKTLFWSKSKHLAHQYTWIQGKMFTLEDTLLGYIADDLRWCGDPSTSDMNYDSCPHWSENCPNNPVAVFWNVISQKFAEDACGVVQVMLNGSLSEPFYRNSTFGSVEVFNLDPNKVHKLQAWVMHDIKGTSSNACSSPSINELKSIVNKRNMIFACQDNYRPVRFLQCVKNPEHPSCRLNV
Text: In Vitro: Primary liver cells subjected to H2O2-induced oxidative stress injury. In Vivo: Liver IRI induced in Sprague Dawley rats using a segmental (70% ischemia) hilar clamp model. […] Additionally, CD38 activity correlated with increased ischemic time (FIGS. 15A and 15C). However, Apigenin treatment attenuated liver IRI (FIG. 16). […] Additionally, Apigenin treatment improves tissue MAD, ATP and GSH. Lastly, Apigenin treatment preserves tissue architecture.

O=c1cc(-c2ccc(O)cc2)oc2cc(O)cc(O)c12 [Apigenin]
tissue architecture ([1]; histology, liver IRI): preserves
liver IRI (injury) ([1]; intrahepatic delivery, 1 h of ischemia and 6 h of reperfusion, FIG. 16): attenuated; also recorded: protection from injury; also recorded: decreased injury
tissue ATP ([1]; liver tissue, liver IRI): improves
tissue GSH ([1]; liver tissue, liver IRI): improves
tissue MDA (malondialdehyde) ([1]; liver tissue, liver IRI): improves
ALT ([1]; plasma, liver IRI): improves
AST ([1]; plasma, liver IRI): improves
CD38 activity during IRI ([2]; FIG. 14): rescued
CD38 activity during IRI ([2]; FIG. 14, listed as Inhibitor): decreases
